Laboratory results taken from PubChem BioAssay AID1259407 (Chemical Carcinogenesis Research Information System (CCRIS), 2018).
The source made the active and inactive calls. How the calls were made is not given here.

Test system: CCRIS mutagenicity, Ames/micronucleus/aberration tests
Experiment: CCRIS mutagenicity studies

With `COc1cc(CNC(=O)CCCC/C=C/C(C)C)ccc1O` the mutagenic call (End Point: IN VITRO CHROMOSOMAL ABERRATIONS, Test System: HUMAN LYMPHOCYTES, Metabolic Activation: NONE) was “inactive; negative”, the mutagenic call (End Point: IN VITRO CHROMOSOMAL ABERRATIONS, Test System: HUMAN LYMPHOCYTES, Metabolic Activation: RAT LIVER S-9, AROCLOR 1254) was “inactive; negative” and the mutagenic call (End Point: IN VITRO CHROMOSOMAL ABERRATIONS, Test System: HUMAN LYMPHOCYTES, Metabolic Activation: S-9) was “inactive; negative”. The mutagenic call (End Point: IN VITRO CHROMOSOMAL ABERRATIONS, Test System: HUMAN PERIPHERAL BLOOD LYMPHOCYTES, Metabolic Activation: NONE) was “inactive; negative”, the mutagenic call (End Point: IN VITRO CHROMOSOMAL ABERRATIONS, Test System: HUMAN PERIPHERAL BLOOD LYMPHOCYTES, Metabolic Activation: RAT, LIVER, S-9, AROCLOR 1254) was “inactive; negative” and the mutagenic call (End Point: IN VIVO MICRONUCLEUS, Test System: BONE MARROW ERYTHROCYTES, Species: MOUSE, Strain/Sex: CD-1/FEMALE, Route: GAVAGE) was “inactive; negative”. The mutagenic call (End Point: IN VIVO MICRONUCLEUS, Test System: BONE MARROW ERYTHROCYTES, Species: MOUSE, Strain/Sex: CD-1/MALE, Route: GAVAGE) was “inactive; negative”, the mutagenic call (End Point: IN VIVO MICRONUCLEUS, Test System: BONE MARROW POLYCHROMATIC ERYTHROCYTES, Species: MOUSE, Strain/Sex: CD-1/MALE, FEMALE, Route: GAVAGE) was “inactive; negative” and the mutagenic call (Test System: AMES SALMONELLA TYPHIMURIUM, Strain/Indicator: TA97, Metabolic Activation: NONE, Method: PREINCUBATION (20 MIN)) was “inactive; negative”. For the same compound, the mutagenic call (Test System: AMES SALMONELLA TYPHIMURIUM, Strain/Indicator: TA97, Metabolic Activation: S-9, Method: PREINCUBATION (20 MIN)) was “inactive; negative”, the mutagenic call (Test System: AMES SALMONELLA TYPHIMURIUM, Strain/Indicator: TA98, Metabolic Activation: HAMSTER, LIVER, S-9, AROCLOR 1254, Method: STANDARD PLATE) was “inactive; negative” and the mutagenic call (Test System: AMES SALMONELLA TYPHIMURIUM, Strain/Indicator: TA98, Metabolic Activation: NONE, Method: DIRECT PLATE) was “inactive; negative”. The mutagenic call (Test System: AMES SALMONELLA TYPHIMURIUM, Strain/Indicator: TA98, Metabolic Activation: NONE, Method: PREINCUBATION) was “inactive; negative”, the mutagenic call (Test System: AMES SALMONELLA TYPHIMURIUM, Strain/Indicator: TA98, Metabolic Activation: NONE, Method: PREINCUBATION (20 MIN)) was “inactive; negative” and the mutagenic call (Test System: AMES SALMONELLA TYPHIMURIUM, Strain/Indicator: TA98, Metabolic Activation: RAT LIVER S-9, AROCLOR 1254, Method: PREINCUBATION) was “inactive; negative”. For the same compound, the mutagenic call (Test System: AMES SALMONELLA TYPHIMURIUM, Strain/Indicator: TA98, Metabolic Activation: RAT LIVER S-9, AROCLOR 1254, Method: STANDARD PLATE) was “inactive; negative”, the mutagenic call (Test System: AMES SALMONELLA TYPHIMURIUM, Strain/Indicator: TA98, Metabolic Activation: RAT, LIVER, S-9, AROCLOR 1254, Method: DIRECT PLATE) was “inactive; negative” and the mutagenic call (Test System: AMES SALMONELLA TYPHIMURIUM, Strain/Indicator: TA98, Metabolic Activation: RAT, LIVER, S-9, AROCLOR 1254, Method: PREINCUBATION) was “inactive; negative”. For the same compound, the mutagenic call (Test System: AMES SALMONELLA TYPHIMURIUM, Strain/Indicator: TA98, Metabolic Activation: RAT, LIVER, S-9, AROCLOR, Method: STANDARD PLATE) was “active; positive”, the mutagenic call (Test System: AMES SALMONELLA TYPHIMURIUM, Strain/Indicator: TA98, Metabolic Activation: S-9, Method: PREINCUBATION (20 MIN)) was “inactive; negative” and the mutagenic call (Test System: AMES SALMONELLA TYPHIMURIUM, Strain/Indicator: TA100, Metabolic Activation: HAMSTER, LIVER, S-9, AROCLOR 1254, Method: STANDARD PLATE) was “inactive; negative”. For the same compound, the mutagenic call (Test System: AMES SALMONELLA TYPHIMURIUM, Strain/Indicator: TA100, Metabolic Activation: NONE, Method: DIRECT PLATE) was “inactive; negative”, the mutagenic call (Test System: AMES SALMONELLA TYPHIMURIUM, Strain/Indicator: TA100, Metabolic Activation: NONE, Method: PREINCUBATION) was “inactive; negative” and the mutagenic call (Test System: AMES SALMONELLA TYPHIMURIUM, Strain/Indicator: TA100, Metabolic Activation: NONE, Method: STANDARD PLATE) was “inactive; negative”. For the same compound, the mutagenic call (Test System: AMES SALMONELLA TYPHIMURIUM, Strain/Indicator: TA100, Metabolic Activation: RAT LIVER S-9, AROCLOR 1254, Method: PREINCUBATION) was “inactive; negative”, the mutagenic call (Test System: AMES SALMONELLA TYPHIMURIUM, Strain/Indicator: TA100, Metabolic Activation: RAT LIVER S-9, AROCLOR 1254, Method: STANDARD PLATE) was “inactive; negative” and the mutagenic call (Test System: AMES SALMONELLA TYPHIMURIUM, Strain/Indicator: TA100, Metabolic Activation: RAT, LIVER, S-9, AROCLOR 1254, Method: DIRECT PLATE) was “inactive; negative”. For the same compound, the mutagenic call (Test System: AMES SALMONELLA TYPHIMURIUM, Strain/Indicator: TA100, Metabolic Activation: RAT, LIVER, S-9, AROCLOR 1254, Method: PREINCUBATION) was “inactive; negative”, the mutagenic call (Test System: AMES SALMONELLA TYPHIMURIUM, Strain/Indicator: TA100, Metabolic Activation: S-9 (0.25 ML), Method: PREINCUBATION (20 MIN)) was “inactive; negative” and the mutagenic call (Test System: AMES SALMONELLA TYPHIMURIUM, Strain/Indicator: TA100, Metabolic Activation: S-9 (0.5 ML), Method: PREINCUBATION (60 MIN)) was “inactive; negative”. For the same compound, the mutagenic call (Test System: AMES SALMONELLA TYPHIMURIUM, Strain/Indicator: TA1535, Metabolic Activation: HAMSTER, LIVER, S-9, AROCLOR 1254, Method: STANDARD PLATE) was “inactive; negative”.
